How the values were obtained:
[1] = test system: HCT-116 p53−/− cells; experiment: Whole-cell dTTP extraction and quantification; type: cell-based, human
Method: FIG. 13. Effect of YMU1 on cellular dTTP level. HCT-116 p53−/− cells were transfected with or without TMPK siRNA for 2 days and treated with vehicle or YMU1. After 72 h, cells were harvested for Western blot analysis and dNTP level determination (mean±s.d., n=3; **, P<0.01 based on a two-tailed Student's t-test).
The investigators performed additional experiments to determine the effect of YMU1 treatment on cellular dTTP levels. YMU1 treatment in cells reduced dTTP pool about 30-40% after treatment with YMU1 for 3 days (FIG. 13). Transfection of these cells with siRNA to knock-down TMPK expression reduced the dTTP pool size in a similar magnitude.
10^6 cells were extracted with 1 ml of ice-cold 60% methanol at −20° C. overnight, followed by centrifugation for 30 min at 16,000×g. The supernatant was immersed at 100° C. in dry bath for 3 min and dried under vacuum. The dry residue was dissolved in 80 μl of nuclease free water and used for cellular dNTP measurement according to the method described by Ferraro et al. (Ferraro et al., 2010).

[2] = test system: MDA-MB231 cells; experiment: Comet assay of DNA repair efficiency after doxorubicin; type: cell-based, human; settings: YMU1 treatment, after removal of doxorubicin (0.1 μM)
Method: FIG. 15. […] DNA repair efficiency was measured by comet assay at indicated time after removal of doxorubicin (0.1 μM) in MDA-MB231 cells. Image of DNA comet was acquired and quantified by using scion image software for tail moment determination. Data were expressed as mean±s.d. by counting at least 70 comets per sample in 3 independent experiments. **, P<0.01 based on a two-tailed Student's t-test.
Alkaline comet assays were performed using a Trevigen's Comet Assay kit (4250-050-k) according to the manufacturer's instruction. DNA was stained with SYBR Green, and slides were photographed digitally (Olympus BX51 microscope and Olympus camera). Tail moments were analyzed using Scoin Image software.

CCOC(=O)N1CCN(C(=O)Cn2sc3nc(C)cc(C)c3c2=O)CC1 [compound 21, Ethyl 4-(2-(4,6-dimethyl-3-oxoisothiazolo[5,4-b]pyridin-2(3H)-yl)acetyl) piperazine-1-carboxylate]
further reduction of dTTP pool in TMPK knockdown cells ([1]; cells transfected with TMPK siRNA, then YMU1): did not cause a further reduction | reduction of dTTP pool ([1]; treatment with YMU1 for 3 days): 30-40% | DNA repair (comet assay, tail moment) [2]: impairment of DNA repair

Source: patent US9278982B2, “Targeting human thymidylate kinase induces DNA repair toxicity in malignant tumor cells” (NATIONAL YANG-MING UNIVERSITY, priority 2010, dated 2016)
